Measured values: patent US20170114128A1, “USE OF TGF-BETA ANTAGONISTS OF TREAT TYPE-2 DIABETES” (ALBERT EINSTEIN COLLEGE OF MEDICINE, INC., priority 2014, published 2017)
*1 amine or outer side, *2 acyl side, *3 side chain or, on linkers, in order; H or OH if unused. Where a SMILES comes first, the peptide text is derived from it. Bridges are numbered along the chain shown (N, C = ends). Roman numbers before positions name the chains, in order. [ ]: non-standard residue; d: D form. Actinocin(9to1) = Cc1c2oc3c(C)ccc(C(=O)[*:1])c3nc-2c(C(=O)[*:2])c(N)c1=O; NMeV = CN[C@H](C(=O)O)C(C)C; Sar = CNCC(=O)O

How the values were obtained:
[1] = test system: old mice maintained on a normal chow; assay: Third-ventricle injection of TGFβ antagonist, GTT and ITT in aging paradigm; assay type: in vivo; conditions: hypothalamic third-ventricle injection
Text: (§1) Central TGFβ blockade reverses glucose disorder under obesity or aging: It was studied whether TGFβ blockade could be applied to the CNS in order to reverse glucose and insulin disorders under disease conditions. To address this question, a mouse model was employed with HFD-induced obesity and therefore glucose and insulin intolerance. In this study, C57BL/6 mice were maintained under a HFD vs. a chow for 3 months. Subsequently, TGFβ antagonist SB431542 vs. vehicle was administrated to overnight-fasted mice through pre-implanted cannula. […] In parallel, using aging paradigm, it was further asked if TGFβ blockade could be used to intervene with glucose and insulin disorders independently of HFD feeding. To address this question, a similar procedure was applied to young vs. old mice; both mice were maintained on a normal chow since weaning. As shown in FIG. 7e-h, aging was associated with impairment of glucose tolerance and insulin tolerance in control group. […] Altogether, central inhibition of TGFβ through a pharmacological approach acutely normalizes the brain function to improve glucose and insulin homeostasis and treat type-2 diabetes.
(§2) Animals. […] Food intake and body weight of mice were measured using a laboratory scale. […] Blood glucose levels during GTT and ITT were measured with LifeScan® blood glucose monitoring system. […]

[2] = test system: C57BL/6 mice with HFD-induced obesity; assay: Third-ventricle injection of TGFβ antagonist, GTT and ITT in mice with HFD-induced obesity; assay type: in vivo; conditions: HFD for 3 months; single injection in the third ventricle, overnight-fasted; vs vehicle; 2-hour treatment duration
Text: as §1, §2

hypothalamic GT1-7 cells = assay: IκBα mRNA levels in GT1-7 cells after TGF-β1 treatment; assay type: cell-based; conditions: transcription inhibitor added to TGF-β1-treated cells
Text: TGF-β degrades IκBα mRNA to atypically activate NF-κB: RNA SGs/PBs have the function to degrade mRNAs by targeting the AU-rich element (AUE) at the 3′ untranslated region (UTR) (36-38). […] This information led to the suspicion that TGF-β could work to degrade IκBα mRNA. […] To test if TGF-β induced IκBα mRNA decay is accountable for the glucose metabolism disorder, an experiment was designed to study if the pro-diabetic effect of brain TGF-β excess could be reversed through directly increasing hypothalamic IκBα mRNA. Using an approach which was established previously (23), a lentiviral system was employed to deliver exogenous Iκbα mRNA into the mediobasal hypothalamus of chow-fed C57BL/6 mice, and indeed, this lentivirus-delivered Iκbα mRNA prevented TGF-β1 injection from activating hypothalamic NF-κB (FIG. 5f). Metabolic analysis confirmed that this treatment attenuated the effect of TGF-β1 from impairing insulin-dependent glucose control (FIG. 5g).
Cell culture. GT1-7 cells were cultured as described previously (14). Briefly, GT1-7 cells were maintained in Dulbecco's Modified Eagle's Medium (Invitrogen) with 10% fetal bovine serum (Hyclone) and penicillin/streptomycin (Invitrogen), at 37° C. in a humidified atmosphere containing 5% CO2. Cells were fasted in serum-free medium for an overnight period, and then were subjected to TGF-β1 treatment at the indicated dose and time course.

Row | SMILES | glucose intolerance (GTT) [1] | insulin intolerance (ITT) [1] | glucose intolerance (GTT) [2] | insulin intolerance (ITT) [2] | IκBα mRNA decay (hypothalamic GT1-7 cells)
1 | NC(=O)c1ccc(-c2nc(-c3ccc4c(c3)OCO4)c(-c3ccccn3)[nH]2)cc1 [SB431542, 4-[4-(1,3-benzodioxol-5-yl)-5-(2-pyridinyl)-1H-imidazol-2-yl]benzamide] | significant reductions | significant reductions | significantly reduced | significantly reduced | –
2 | Cc1c2oc3c(C)ccc(C(=O)N[C@@H]4C(=O)N[C@H](C(C)C)C(=O)N5CCC[C@H]5C(=O)N(C)CC(=O)N(C)[C@@H](C(C)C)C(=O)O[C@@H]4C)c3nc-2c(C(=O)N[C@@H]2C(=O)N[C@H](C(C)C)C(=O)N3CCC[C@H]3C(=O)N(C)CC(=O)N(C)[C@@H](C(C)C)C(=O)O[C@@H]2C)c(N)c1=O [actinomycin D, reference compound] (I: T[dV]P[Sar][NMeV] / II: T[dV]P[Sar][NMeV]; ester I:1-I:C, II:1-II:C; linker I:N-II:N via Actinocin(9to1)) | – | – | – | – | further accelerated
